# Laboratory results as given in patent US8426447B2, “Spiro-tricyclic ring compounds as beta-secretase modulators and methods of use” (Amgen Inc., priority 2008, dated 2013).
# Columns and labels:
# BACE1 [1] = target: T1, BACE1 (Homo sapiens, UniProt P56817); experiment: In Vitro Enzymatic BACE FRET (Fluorescence Resonance Energy Transfer) Assay; format: biochemical; conditions: read-out: BACE1 FRET assay
# Procedure, shortened: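 Cleavage of a 50 nM internally quenched peptide substrate is followed by fluorescence after a one-hour reaction in acidic acetate buffer, pH 4.2, terminated by Tris.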
# BACE1 [2] = target: T1, BACE1; experiment: In Vitro BACE Cell-based Assay (HEK cell assay): Aβ40 in conditioned medium of cells stably expressing Amyloid Precursor Protein, sandwich ELISA; conditions: read-out: HEK cell assay
# Procedure, shortened: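 Read-out is time-resolved fluorescence of Aβ40 in supernatant, captured by pAb40 and detected with biotinylated 6E10 plus Streptavidin-Europium. Cells stably expressing APP received compounds for 24 h over 10 concentrations starting at 100 μM or 10 μM, final DMSO 0.1%.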
# [3] = in vitro BACE FRET enzyme assay, IC50 class symbols
# [4] = HEK cell-based assay, Aβ40 in conditioned medium, IC50 class symbols
# T1 sequence (P56817 46-501, species assumed): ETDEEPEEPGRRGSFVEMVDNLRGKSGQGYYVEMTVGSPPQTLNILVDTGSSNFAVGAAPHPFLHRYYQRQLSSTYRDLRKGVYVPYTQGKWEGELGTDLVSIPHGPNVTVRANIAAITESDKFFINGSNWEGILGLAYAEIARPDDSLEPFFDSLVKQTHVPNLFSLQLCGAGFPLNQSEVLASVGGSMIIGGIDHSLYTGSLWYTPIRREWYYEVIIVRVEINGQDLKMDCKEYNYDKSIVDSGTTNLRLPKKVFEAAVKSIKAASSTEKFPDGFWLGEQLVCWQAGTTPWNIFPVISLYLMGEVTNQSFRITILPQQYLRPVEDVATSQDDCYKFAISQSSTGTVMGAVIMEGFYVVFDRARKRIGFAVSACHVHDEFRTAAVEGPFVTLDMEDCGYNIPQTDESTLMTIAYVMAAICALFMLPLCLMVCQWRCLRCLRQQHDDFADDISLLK
smiles,measurement,setting,value
NC1=N[C@@]2(CO1)c1cc(-c3cncnc3)ccc1Oc1cccnc12 [compound 525],IC50,BACE1 [1],> 5 µM
same,IC50,BACE1 [2]; HEK cells,> 5 µM
CC(C)(C)CC(O)c1ccc2c(c1)[C@@]1(COC(N)=N1)c1cc(-c3ccc(F)nc3)ccc1O2 (stereo partly shown) [162b],IC50,"BACE1 [1]; Table III, IC50's in uM ranges",0.1 to 1 µM
same,IC50,"BACE1 [2]; Table III, IC50's in uM ranges",0.1 to 1 µM
CC(C)(C)COc1ccc2c(c1)[C@]1(COC(N)=N1)c1cc(-c3ccc(=O)[nH]c3)ccc1O2 [compound 980],IC50,BACE1 [1],0.1 to 1 µM
same,IC50,BACE1 [2],1 to 5 µM
NC1=N[C@@]2(CO1)c1cc(C#CC3CC3)ccc1Oc1ncc(N3CCOCC3)cc12 [compound 607],IC50,"BACE1 [1]; Table IV, class symbols",< 0.1 µM
same,IC50,"BACE1 [2]; Table IV, class symbols",< 0.1 µM
CC(C)(C)COc1ccc2c(c1)[C@]1(COC(N)=N1)c1cc(-c3cncs3)ccc1O2 [compound 971],IC50,BACE1 [1],< 0.1 µM
same,IC50,BACE1 [2],1 to 5 µM
CC(C)(C)COc1ccc2c(c1)[C@@]1(COC(N)=N1)c1cc(-c3ccc(F)nc3)cnc1O2 [compound 951],IC50,BACE1 [1],< 0.1 µM
same,IC50,BACE1 [2],< 0.1 µM
NC1=N[C@]2(CO1)c1cc(Oc3ccccn3)ccc1Oc1ccc(-c3cncnc3)cc12 [compound 209],IC50,"BACE1 [1]; Table III, IC50's in uM ranges",< 0.1 µM
same,IC50,"BACE1 [2]; Table III, IC50's in uM ranges",0.1 to 1 µM
"NC1=N[C@@]2(CO1)c1cc(-c3ccc(F)nc3)ccc1Oc1cnc(C3=CCOCC3)cc12 [compound 431, (5S)-3-(3,6-dihydro-2H-pyran-4-yl)-7-(6-fluoro-3-pyridinyl)spiro[chromeno[2,3-c]pyridine-5,4′-[1,3]oxazol]-2′-amine]",IC50,BACE1 [1],< 0.1 µM
same,IC50,BACE1 [2]; HEK cells,< 0.1 µM
NC1=N[C@@]2(CO1)c1cc(-c3cccnc3)ccc1Oc1cnc(C3=CCOCC3)cc12 [compound 790],IC50,BACE1 [1],< 0.1 µM
same,IC50,BACE1 [2],< 0.1 µM
CC(C)(C)COc1ccc2c(c1)[C@]1(COC(N)=N1)c1cc(C3CCCC3)ccc1O2 [compound 701],IC50,BACE1 [1],< 0.1 µM
same,IC50,BACE1 [2],1 to 5 µM
CCOC(=O)/C=C/c1ccc2c(c1)[C@]1(COC(N)=N1)c1cc(-c3cncnc3)ccc1O2 [compound 825],IC50,"BACE1 [1]; Table IV, class symbols",0.1 to 1 µM
same,IC50,"BACE1 [2]; Table IV, class symbols",0.1 to 1 µM
NC1=N[C@]2(CO1)c1cc(Br)ccc1Oc1cnc(Cl)cc12 [compound 549],IC50,"BACE1 [1]; Table IV, class symbols",> 5 µM
same,IC50,"BACE1 [2]; Table IV, class symbols",> 5 µM
Cc1cncc(-c2ccc3c(c2)[C@@]2(COC(N)=N2)c2cc(Cl)ncc2O3)c1 [compound 327],IC50,BACE1 [1]; [3],0.1 to 1 µM
same,IC50,BACE1 [2]; [4],1 to 5 µM
NC1=N[C@@]2(CO1)c1cc(Oc3ccccn3)ccc1Oc1ncc(Br)cc12 [compound 936],IC50,BACE1 [1],> 5 µM
same,IC50,BACE1 [2],> 5 µM
CC(C)(C)COc1ccc2c(c1)[C@]1(COC(N)=N1)c1cc(C3CC4CCC3C4)ccc1O2 (stereo partly shown) [compound 700],IC50,BACE1 [1],0.1 to 1 µM
same,IC50,BACE1 [2],> 5 µM
CC(=O)c1ccc(-c2ccc3c(c2)[C@]2(COC(N)=N2)c2cc(-c4cncnc4)ccc2O3)cc1 [compound 888],IC50,"BACE1 [1]; Table IV, class symbols",< 0.1 µM
same,IC50,"BACE1 [2]; Table IV, class symbols",< 0.1 µM
"CC1(C)C=C(c2cc3c(cn2)Oc2ccc(-c4cccnc4)cc2[C@@]32COC(N)=N2)CCO1 [compound 437, (5S)-3-(6,6-dimethyl-3,6-dihydro-2H-pyran-4-yl)-7-(3-pyridinyl)spiro[chromeno[2,3-c]pyridine-5,4′-[1,3]oxazol]-2′-amine]",IC50,BACE1 [1],< 0.1 µM
same,IC50,BACE1 [2]; HEK cells,< 0.1 µM
NC1=N[C@@]2(CO1)c1cc(-c3cccnc3)ccc1Oc1cnc(N3CCCC3)cc12 [compound 493],IC50,BACE1 [1],< 0.1 µM
same,IC50,BACE1 [2]; HEK cells,< 0.1 µM
CC(C)(C)COc1ccc2c(c1)[C@]1(COC(N)=N1)c1cc(C3CCCCC3)ccc1O2 [compound 802],IC50,"BACE1 [1]; Table IV, class symbols",< 0.1 µM
same,IC50,"BACE1 [2]; Table IV, class symbols",0.1 to 1 µM
COc1ccc2c(c1)[C@]1(COC(N)=N1)c1cc(C3=CCOCC3)cc(F)c1O2 [compound 363],IC50,BACE1 [1]; [3],> 5 µM
same,IC50,BACE1 [2]; [4],> 5 µM
CC1(C)C=C(c2cnc3c(c2)[C@]2(COC(N)=N2)c2cc(-c4cccnc4)ccc2O3)CCO1 [compound 481],IC50,BACE1 [1],< 0.1 µM
same,IC50,BACE1 [2]; HEK cells,< 0.1 µM
CC(C)(C)CCc1ccc2c(c1)[C@@]1(COC(N)=N1)c1cc(-c3ccc(F)nc3)ccc1O2 [153a],IC50,"BACE1 [1]; Table III, IC50's in uM ranges",< 0.1 µM
same,IC50,"BACE1 [2]; Table III, IC50's in uM ranges",0.1 to 1 µM
CC(C)(C)COc1ccc2c(c1)[C@]1(COC(N)=N1)c1cc(C(=O)NC3CCC3)ccc1O2 [compound 702],IC50,BACE1 [1],< 0.1 µM
same,IC50,BACE1 [2],0.1 to 1 µM
"COc1ccc2c(c1)C1(COC(N)=N1)c1cc(-c3cncnc3)ccc1O2 (stereo not shown) [Example 14, 2′-methoxy-7′-(5-pyrimidinyl)spiro[1,3-oxazole-4,9′-xanthen]-2-amine]",IC50,BACE1 [1]; Table 1,0.1 to 1 µM
same,IC50,"BACE1 [2]; Table 1, Aβ40, 24 h incubation",1 to 5 µM
NC1=NC2(CO1)c1cc(C3CC3)ccc1Oc1ccc(C3CC3)cc12 [compound 760],IC50,BACE1 [1],1 to 5 µM
same,IC50,BACE1 [2],1 to 5 µM
COC(C)(C)C#Cc1ccc2c(c1)[C@]1(COC(N)=N1)c1cc(-c3cccnc3)ccc1O2 [compound 201],IC50,"BACE1 [1]; Table III, IC50's in uM ranges",< 0.1 µM
same,IC50,"BACE1 [2]; Table III, IC50's in uM ranges",< 0.1 µM
CC(C)(C)COc1ccc2c(c1)[C@]1(COC(N)=N1)c1cc(N3CCCC3)ccc1O2 [compound 815],IC50,"BACE1 [1]; Table IV, class symbols",0.1 to 1 µM
same,IC50,"BACE1 [2]; Table IV, class symbols",1 to 5 µM
CC(C)(C)COc1ccc2c(c1)[C@@]1(COC(N)=N1)c1cc(-c3cnc4ccccn34)ccc1O2 [compound 192],IC50,"BACE1 [1]; Table III, IC50's in uM ranges",1 to 5 µM
same,IC50,"BACE1 [2]; Table III, IC50's in uM ranges",> 5 µM
COc1cccc(-c2ccc3c(c2)[C@]2(COC(N)=N2)c2cc(-c4cncnc4)ccc2O3)c1 [compound 893],IC50,"BACE1 [1]; Table IV, class symbols",< 0.1 µM
same,IC50,"BACE1 [2]; Table IV, class symbols",0.1 to 1 µM
CC(C)(C)COc1ccc2c(c1)[C@]1(COC(N)=N1)c1cc(C(=O)NC3CCCC3)ccc1O2 [compound 874],IC50,"BACE1 [1]; Table IV, class symbols",0.1 to 1 µM
same,IC50,"BACE1 [2]; Table IV, class symbols",1 to 5 µM
CC(C)(C)CC(=O)c1ccc2c(c1)[C@]1(COC(N)=N1)c1cc(-c3ccc(F)nc3)ccc1O2 [150a],IC50,"BACE1 [1]; Table III, IC50's in uM ranges",< 0.1 µM
same,IC50,"BACE1 [2]; Table III, IC50's in uM ranges",0.1 to 1 µM
"COc1ccc(F)c(-c2ccc3c(c2)C2(COC(N)=N2)c2ccc(C)cc2O3)c1 (stereo not shown) [Example 19, 2′-(2-fluoro-5-methoxyphenyl)-6′-methylspiro[1,3-oxazole-4,9′-xanthen]-2-amine]",IC50,BACE1 [1]; Table 1,1 to 5 µM
same,IC50,"BACE1 [2]; Table 1, Aβ40, 24 h incubation",0.1 to 1 µM
CC(C)(C)C#Cc1ccc2c(c1)[C@]1(COC(N)=N1)c1cc(C#CC(C)(C)C)ncc1O2 [compound 847],IC50,"BACE1 [1]; Table IV, class symbols",0.1 to 1 µM
same,IC50,"BACE1 [2]; Table IV, class symbols",1 to 5 µM
Cc1ccccc1-c1ccc2c(c1)[C@]1(COC(N)=N1)c1cc(-c3cncnc3)ccc1O2 [compound 220],IC50,"BACE1 [1]; Table III, IC50's in uM ranges",< 0.1 µM
same,IC50,"BACE1 [2]; Table III, IC50's in uM ranges",0.1 to 1 µM
CC1(C)C[C@H](c2ccc3c(c2)[C@]2(COC(N)=N2)c2cc(-c4cncnc4)ccc2O3)CCO1 [compound 482],IC50,BACE1 [1],< 0.1 µM
same,IC50,BACE1 [2]; HEK cells,< 0.1 µM
C=C(C)COc1ccc2c(c1)[C@]1(COC(N)=N1)c1cc(-c3cncnc3)ccc1O2 [compound 139],IC50,"BACE1 [1]; Table III, IC50's in uM ranges",< 0.1 µM
same,IC50,"BACE1 [2]; Table III, IC50's in uM ranges",< 0.1 µM
Cc1noc(C)c1-c1ccc2c(c1)[C@]1(COC(N)=N1)c1cc(-c3cccnc3)ccc1O2 [compound 704],IC50,BACE1 [1],0.1 to 1 µM
same,IC50,BACE1 [2],0.1 to 1 µM
"COc1ccc2c(c1)[C@]1(COC(N)=N1)c1cc(-c3cncnc3)ccc1O2 [Example 10, (4S)-2′-methoxy-7′-(5-pyrimidinyl)spiro[1,3-oxazole-4,9′-xanthen]-2-amine]",IC50,BACE1 [1]; Table 1,0.1 to 1 µM
same,IC50,"BACE1 [2]; Table 1, Aβ40, 24 h incubation",1 to 5 µM
Cc1noc(C)c1-c1ccc2c(c1)[C@@]1(COC(N)=N1)c1cc(OCC(C)(C)C)ccc1O2 [compound 976],IC50,BACE1 [1],0.1 to 1 µM
same,IC50,BACE1 [2],> 5 µM
CC(=O)c1cc(-c2ccc3c(c2)[C@@]2(COC(N)=N2)c2cc(OCC(C)(C)C)ccc2O3)cs1 [compound 836],IC50,"BACE1 [1]; Table IV, class symbols",1 to 5 µM
same,IC50,"BACE1 [2]; Table IV, class symbols",1 to 5 µM
COC(=O)/C=C/c1ccc2c(c1)[C@]1(COC(N)=N1)c1cc(-c3cncnc3)ccc1O2 [compound 993],IC50,BACE1 [1],< 0.1 µM
same,IC50,BACE1 [2],0.1 to 1 µM
CC(C)(F)COc1cnc2c(c1)[C@]1(COC(N)=N1)c1cc(C#CC3CC3)ccc1O2 [compound 382],IC50,BACE1 [1]; [3],< 0.1 µM
same,IC50,BACE1 [2]; [4],< 0.1 µM
COc1ccc2c(c1)[C@@]1(COC(N)=N1)c1cc(Br)cnc1O2 [compound 680],IC50,BACE1 [1],> 5 µM
same,IC50,BACE1 [2],> 5 µM
NC1=N[C@@]2(CO1)c1cc(-c3cccnc3F)ccc1Oc1c(F)cc(N3C[C@@H]4C[C@H]3CO4)cc12 [compound 416],IC50,BACE1 [1]; [3],< 0.1 µM
same,IC50,BACE1 [2]; [4],< 0.1 µM
CC(C)(C)COc1ccc2c(c1)[C@]1(COC(N)=N1)c1cc(N3CCCCC3)ccc1O2 [compound 813],IC50,"BACE1 [1]; Table IV, class symbols",0.1 to 1 µM
same,IC50,"BACE1 [2]; Table IV, class symbols",0.1 to 1 µM
COCC[C@@H]1CN(c2ccc3c(c2)[C@]2(COC(N)=N2)c2cc(-c4cccnc4)ccc2O3)CCO1 [compound 362],IC50,BACE1 [1]; [3],0.1 to 1 µM
same,IC50,BACE1 [2]; [4],0.1 to 1 µM
NC1=N[C@@]2(CO1)c1cc(Br)ccc1Oc1cnc(Cl)cc12 [compound 548],IC50,"BACE1 [1]; Table IV, class symbols",> 5 µM
same,IC50,"BACE1 [2]; Table IV, class symbols",> 5 µM
